Experimental data reported in US8921270B2, “Method for pre-emergent weed control using triazine-based herbicide” (Amvac Chemical Corporation, priority 2011, dated 2014).
Read-outs that look alike come from different tables or passages of the source.

Tests used:
corn [1] = conditions: in vivo
Method: (§1) Several scientific and replicated field research trials were conducted in multiple locations to evaluate weed control and crop tolerance of herbicide compositions containing about 80% by weight of ametryn active ingredient in the form of a water dispersible granule (WDG). The herbicide compositions were applied to the soil surface with or without weeds present at specific intervals i) before planting (preplant), ii) prior to planting and incorporated into the soil (preplant incorporated), and iii) after planting of the corn, but prior to emergence (preemergence).
(§2) Small plot research trials were conducted using a statistical design known as Randomized Complete Block Design (RCBD), which assumes that a population of experimental units can be divided into a number of relatively homogeneous subpopulations or blocks. […] In the analysis, the variation among blocks can be partitioned out of the experimental error (MSE), thereby reducing this quantity and increasing the power of the test. […]
(§3) Efficacy on weeds and crop tolerance evaluations were conducted at specified intervals for each trial. […] Crop tolerance was evaluated at intervals of 7 to 14, 21 to 28, and 42 to 56 days after corn emergence in these trials. […] In an additional trial, efficacy of ametryn at rates of 1.2, 1.6 and 2.4 lb ai/a applied PRE was evaluated on grass and broadleaf weeds at the same intervals as the earlier trials. […]

Green Foxtail = assay: Weed control field trial, York, Nebr., medium textured soil (Example 11); assay type: in vivo; conditions: PRE; 4 weeks after application
Method: as §1
(§4) Small plot research trials were conducted using a statistical design known as Randomized Complete Block Design (RCBD), which assumes that a population of experimental units can be divided into a number of relatively homogeneous subpopulations or blocks. The treatments are then randomly assigned to experimental units such that each treatment occurs equally often (usually once) in each block—i.e., each block contains all treatments. Blocks usually represent levels of naturally occurring differences or sources of variation that are unrelated to the treatments. In the analysis, the variation among blocks can be partitioned out of the experimental error (MSE), thereby reducing this quantity and increasing the power of the test. See, Clewer, A. G., and D. H. Scarisbrick. 2001. Practical statistics and experimental design for plant and crop science. John Wiley & Sons Ltd., New York. crop science. […]
(§5) Efficacy on weeds and crop tolerance evaluations were conducted at specified intervals for each trial. […] Crop tolerance was evaluated at intervals of 7 to 14, 21 to 28, and 42 to 56 days after corn emergence in these trials. […] The efficacy of ametryn at a rate of 0.8, 1.2, 1.6 and 2.4 lbs ai/a applied 7 to 14 days preplant was evaluated on grass and broadleaf weeds at intervals of 7 to 14, 21 to 28, and 42 to 56 days after corn emergence. […] In an additional trial, efficacy of ametryn at rates of 1.2, 1.6 and 2.4 lb ai/a applied PRE was evaluated on grass and broadleaf weeds at the same intervals as the earlier trials. […]

Velvetleaf [2] = assay: as above; assay type: in vivo; conditions: PRE; 4 weeks after application
Method: as §1, §4, §5

Waterhemp = assay: as above; assay type: in vivo; conditions: PRE; 4 weeks after application
Method: as §1, §4, §5

Goosegrass = assay: Weed control field trial, Laurel, Md., light textured soil (Example 4); assay type: in vivo; conditions: 0.8, 1.6, 2.4 lb ai/a; 14 days preplant, 2 days preplant, PRE; 21 and 35 days after corn emergence
Method: as §1, §2, §3

Lambsquaters = assay: as above; assay type: in vivo; conditions: 0.8, 1.6, 2.4 lb ai/a; 14 days preplant, 2 days preplant, PRE; 21 and 35 days after corn emergence
Method: as §1, §2, §3

corn [3] = conditions: in vivo; remark: listed apart in the source
Method: as §1, §2, §3

corn [4] = conditions: in vivo; remark: listed apart in the source
Method: as §1, §2, §3

corn [5] = assay: Crop tolerance (corn) field trial, Laurel, Md., light soil (Example 2); assay type: in vivo
Method: as §1, §2, §3

corn [6] = assay: Corn injury in weed control field trial, Laurel, Md., light textured soil (Example 9); assay type: in vivo
Method: as §1
(§6) Small plot research trials were conducted using a statistical design known as Randomized Complete Block Design (RCBD), which assumes that a population of experimental units can be divided into a number of relatively homogeneous subpopulations or blocks. The treatments are then randomly assigned to experimental units such that each treatment occurs equally often (usually once) in each block—i.e., each block contains all treatments. Blocks usually represent levels of naturally occurring differences or sources of variation that are unrelated to the treatments. In the analysis, the variation among blocks can be partitioned out of the experimental error (MSE), thereby reducing this quantity and increasing the power of the test. See, Clewer, A. G., and D. H. Scarisbrick. 2001. Practical statistics and experimental design for plant and crop science. John Wiley & Sons Ltd., New York. crop science. Treatment size was typically 4 rows of corn on 30-inch row spacing×30 feet long replicated 3 to 4 times. Preplant, preplant incorporated (PPI), or preemergence (PRE) treatments were uniformly applied with a hand-held backpack sprayer pressurized with compressed air or carbon dioxide (CO2) as the propellant to simulate commercial scale application. Treatments were applied using flat fan nozzle or spray nozzles at from 30 to 35 pounds per square inch (psi) delivering from 15 to 20 gallons of finished spray solution per acre.
as §5

Giant Foxtail [7] = assay: Weed control field trial, Fishers, Ind., fine textured soil (Example 8); assay type: in vivo; conditions: PRE, rate of 1.6 lb ai/a
Method: as §1, §6, §5

Redroot Pigweed = assay: as above; assay type: in vivo; conditions: PRE, rate of 1.6 lb ai/a
Method: as §1, §6, §5

Velvetleaf [8] = assay: as above; assay type: in vivo; conditions: PRE, rate of 1.6 lb ai/a
Method: as §1, §6, §5

Lambsquarters = assay: as above; assay type: in vivo; conditions: PRE, rate of 1.6 lb ai/a
Method: as §1, §6, §5

corn [9] = conditions: in vivo; remark: listed apart in the source
Method: as §1, §2, §3

Cocklebur = assay: Weed control field trial, Laurel, Md., light textured soil (Example 5); assay type: in vivo; conditions: 1.2, 1.6, 2.4 lb ai/a PRE; 27 and 56 days after corn emergence
Method: as §1, §6
(§7) Efficacy on weeds and crop tolerance evaluations were conducted at specified intervals for each trial. Ametryn herbicide (80% WDG) was applied to the soil at the times relative to planting as indicated at rates of 0.8, 1.2, 1.6, and 2.4 pounds of active ingredient per acre (lb ai/a) at various days preplant up to right before planting (0 day preplant), or immediately following planting (PRE), but before crop emergence. Crop tolerance was evaluated at intervals of 7 to 14, 21 to 28, and 42 to 56 days after corn emergence in these trials. Crop injury, if observed, was reported on a 0 to 100% visual rating scale and the type of injury (e.g., stunting) was noted. The efficacy of ametryn at a rate of 0.8, 1.2, 1.6 and 2.4 lbs ai/a applied 7 to 14 days preplant was evaluated on grass and broadleaf weeds at intervals of 7 to 14, 21 to 28, and 42 to 56 days after corn emergence. Efficacy trials were also conducted in no tillage and reduced tillage cropping systems, allowing for evaluations of existing weeds at application (i.e., burndown) and residual control of weeds which germinate following application. In an additional trial, efficacy of ametryn at rates of 1.2, 1.6 and 2.4 lb ai/a applied PRE was evaluated on grass and broadleaf weeds at the same intervals as the earlier trials. Efficacy in the later trials was conducted in both conventional and reduced tillage systems, which allowed for evaluations of residual weed control following application. A local commercial corn hybrid was planted in each trial location.
(§8) A weed control field trial was conducted in Laurel, Md. on a light textured soil. Ametryn herbicide (80% WDG) was applied preemergence to bare soil in the field to Giant Foxtail, Velvetleaf, Waterhemp, Giant Ragweed, Morningglory, and Cocklebur at rates of 1.2, 1.6 and 2.4 pounds of active ingredient per acre (lb ai/a) immediately following planting (PRE) and prior to corn emergence. The application volume was between 15 and 25 gallons per acre. […]

Giant Foxtail [10] = assay: as above; assay type: in vivo; conditions: 1.2, 1.6, 2.4 lb ai/a PRE; 27 and 56 days after corn emergence
Method: as §1, §6, §7, §8

In the case of `CCNc1nc(NC(C)C)nc(SC)n1` [ametryn, 2-ethylamino-4-isopropylamino-6-methylthio-s-triazine], the “Percent corn injury (corn safety)” value (corn [1]) is reported as “excellent corn safety”, the Weed control (Green Foxtail) is reported as “good control” and the Weed control (Velvetleaf [2]) is reported as “moderate control”. The Weed control (Waterhemp) was “good control”, the Percent weed control (Goosegrass) was “significant improvement of weed control over the untreated treatment” and the Percent weed control (Lambsquaters) was “significant improvement of weed control over the untreated treatment”. For the same compound, the “Percent corn injury (safety to corn)” value (corn [3]) was “acceptable safety”, the “Percent corn injury (safety to corn)” value (corn [4]) was “acceptable safety” and the Corn yield (corn [5]; even though visual injury was measured at certain times) was “no reduction in yield”. The Corn injury (corn [5]; in vivo) was “non-significant or no injury”, the Corn yield (corn [6]; even when minor injury was observed) was “no negative effect on yield” and the Corn injury (corn [6]; in vivo) was “Minor injury”. For the same compound, the “Percent corn injury (safety to corn versus commercial standard)” value (corn [6]; in vivo) was “as safe to corn as a commercial standard of isoxaflutole with cyprosulfamide”, the Safety to corn (corn [6]; in vivo) was “excellent safety” and the Weed control (Giant Foxtail [7]) was “moderate weed control”. For the same compound, the Weed control (Redroot Pigweed) was “good weed control”, the Weed control (Velvetleaf [8]) was “moderate weed control” and the Weed control (Lambsquarters) was “good weed control”. For the same compound, the “Percent corn injury (corn safety)” value (corn [9]) was “excellent corn safety”, the Percent weed control (Cocklebur) was “significant improvement of weed control over the untreated treatment” and the Percent weed control (Giant Foxtail [10]) was “significant improvement of weed control over the untreated treatment”.
